# Assay results as given in patent EP4617268A1, “QUINAZOLINE DERIVATIVES” (Kyoto University, priority 2022, dated 2024).
# Tested on: IKBKAP-FD exon 20 inclusion (IKBKAP gene, IVS20+6T>C mutation)
# Experiment: SPREADD reporter system for the IKBKAP splicing mutation (exon 20 skipping, IVS20+6T>C) in transfected HeLa cells, GFP/RFP ratio
# Assay type: cell-based
# Conditions: Homo sapiens, 24 h; HeLa cells transfected with SPREADD reporter construct; fluorescence measured one day later; IKBKAP-FD exon 20 inclusion rate by GFP/RFP ratio; %GFP of 20 pM 2-chloro-6-(2-furylmethyl)purine set to 100%
# Method: A SPREADD reporter system for a splicing mutation of the IKBKAP gene in familial dysautonomia was prepared, as illustrated in FIG. 1. In this reporter system, GFP is expressed when the gene undergoes normal splicing, while RFP is expressed when the gene undergoes abnormal splicing (exon skipping).
# HeLa cells transfected with the prepared SPREADD reporter construct were brought into contact with the compounds listed in Table 2 below and cultured (concentrations: 22.86237 nM, 68.58711 nM, 205.7613 nM, 617.284 nM, 1851.852 nM, 5555.556 nM, 16666.67 nM, or 50000 nM). One day later, fluorescence was measured using All-in-One Fluorescence Microscope BZ-X700 (Keyence Corp.), and the IKBKAP-FD exon 20 inclusion rate was quantified by the GFP/RFP ratio of the IKBKAP-FD reporter. […] The EC50 was determined with %GFP of 20 pM 2-chloro-6-(2-furylmethyl)purine set to 100%. Regression analysis for determining EC50 was performed using GraphPad Prism 7.05.
row,EC50 [µM],SMILES
1,2.1,"COc1cc2nc(Cl)nc(NCc3ccco3)c2cc1OC [Example 1, 2-Chloro-N-(furan-2-ylmethyl)-6,7-dimethoxyquinazolin-4-amine]"
2,2.12,"COc1cc2nc(Cl)nc(NCc3cccs3)c2cc1OC [Example 2, 2-Chloro-6,7-dimethoxy-N-(thiophen-2-ylmethyl)quinazolin-4-amine]"
3,2.82,"COc1cc2nc(Cl)nc(NCc3ccsc3)c2cc1OC [Example 3, 2-Chloro-6,7-dimethoxy-N-(thiophen-3-ylmethyl)quinazolin-4-amine]"
4,35.9,"COc1cc2nc(Cl)nc(NCc3nccs3)c2cc1OC [Example 4, 2-Chloro-6,7-dimethoxy-N-(1,3-thiazol-2-ylmethyl)quinazolin-4-amine]"
5,4.2,"COc1cc2nc(Cl)nc(NCc3ccncc3)c2cc1OC [Example 5, 2-Chloro-6,7-dimethoxy-N-(pyridin-4-ylmethyl)quinazolin-4-amine]"
6,5.7,"COc1cc2nc(Cl)nc(NCc3ncco3)c2cc1OC [Example 6, 2-Chloro-6,7-dimethoxy-N-(1,3-oxazol-2-ylmethyl)quinazolin-4-amine]"
7,21.9,"COc1cc2nc(Cl)nc(NCc3cc[nH]c3)c2cc1OC [Example 7, 2-Chloro-6,7-dimethoxy-N-(1H-pyrrol-3-ylmethyl) quinazolin-4-amine]"
8,20,"COc1cc2nc(Cl)nc(NCc3ccoc3)c2cc1OC [Example 8, 2-Chloro-N-(furan-3-ylmethyl)-6,7-dimethoxyquinazolin-4-amine]"
9,3.34,"COc1cc2nc(Cl)nc(NCc3ccccn3)c2cc1OC [Example 9, 2-Chloro-6,7-dimethoxy-N-(pyridin-2-ylmethyl)quinazolin-4-amine]"
10,2.9,"COc1ccc2c(NCc3ccco3)nc(Cl)nc2c1 [Example 10, 2-Chloro-N-(furan-2-ylmethyl)-7-methoxyquinazolin-4-amine]"
11,8,"COc1ccc2nc(Cl)nc(NCc3ccco3)c2c1 [Example 11, 2-Chloro-N-(furan-2-ylmethyl)-6-methoxyquinazolin-4-amine]"
12,1.08,"COc1ccc2c(NCc3ccco3)cc(Cl)nc2c1 [Example 12, 2-Chloro-N-(furan-2-ylmethyl)-7-methoxyquinolin-4-amine]"
13,4.39,"COc1ccc2nc(Cl)cc(NCc3ccco3)c2c1 [Example 13, 2-Chloro-N-(furan-2-ylmethyl)-6-methoxyquinolin-4-amine]"
14,1.37,"CCOc1cc2c(NCc3ccco3)nc(Cl)nc2cc1OC [Example 14, 2-Chloro-6-ethoxy-N-(furan-2-ylmethyl)-7-methoxyquinazolin-4-amine]"
15,0.6,"CCCOc1cc2c(NCc3ccco3)nc(Cl)nc2cc1OC [Example 15, 2-Chloro-N-(furan-2-ylmethyl)-7-methoxy-6-propoxyquinazolin-4-amine]"
16,2.49,"COc1cc2nc(Cl)nc(NCc3ccco3)c2cc1OC(C)C [Example 16, 2-Chloro-N-(furan-2-ylmethyl)-7-methoxy-6-(propan-2-yloxy)quinazolin-4-amine]"
17,3.06,"COCCOc1cc2c(NCc3ccco3)nc(Cl)nc2cc1OC [Example 17, 2-Chloro-N-(furan-2-ylmethyl)-7-methoxy-6-(2-methoxyethoxy)quinazolin-4-amine]"

row,EC50 [µM],SMILES
1,1.6,"COc1cc2nc(Cl)nc(NCc3ccco3)c2cc1OCC1CC1 [Example 18, 2-Chloro-6-(cyclopropylmethoxy)-N-(furan-2-ylmethyl)-7-methoxyquinazolin-4-amine]"
2,0.17,"COc1cc2nc(Cl)nc(NCc3ccco3)c2cc1OCC1COC1 [Example 19, 2-Chloro-N-(furan-2-ylmethyl)-7-methoxy-6-(oxetan-3-ylmethoxy)quinazolin-4-amine]"
3,8.34,"COc1cc2nc(Cl)nc(NCc3ccco3)c2cc1OCCN1CCOCC1 [Example 20, 2-Chloro-N-(furan-2-ylmethyl)-7-methoxy-6-[2-(morpholin-4-yl)ethoxy] quinazolin-4-amine]"
4,8.5,"COc1cc2nc(Cl)nc(NCc3ccco3)c2cc1OCCCN1CCOCC1 [Example 21, 2-Chloro-N-(furan-2-ylmethyl)-7-methoxy-6-[3-(morpholin-4-yl)propoxy]quinazolin-4-amine]"
5,14.5,"COc1cc2nc(Cl)nc(NCc3ccco3)c2cc1OCCC1CS(=O)(=O)C1 [Example 22, 2-Chloro-6-[2-(1,1-dioxidothiethan-3-yl)ethoxy]-N-(furan-2-ylmethyl)-7-methoxyquinazolin-4-amine]"
6,0.53,"COc1cc2nc(Cl)nc(NCc3ccco3)c2cc1OCCN [Example 23, 6-(2-Aminoethoxy)-2-chloro-N-(furan-2-ylmethyl)-7-methoxyquinazolin-4-amine]"
7,0.48,"CNCCOc1cc2c(NCc3ccco3)nc(Cl)nc2cc1OC [Example 24, 2-Chloro-N-(furan-2-ylmethyl)-7-methoxy-6-[2-(methylamino)ethoxy]quinazolin-4-amine]"
8,0.79,"COc1cc2nc(Cl)nc(NCc3ccco3)c2cc1OCCN(C)C [Example 25, 2-Chloro-6-[2-(dimethylamino)ethoxy]-N-(furan-2-ylmethyl)-7-methoxyquinazolin-4-amine]"
9,0.82,"COc1cc2nc(Cl)nc(NCc3ccco3)c2cc1OCCO [Example 26, 2-({2-Chloro-4-[(furan-2-ylmethyl)amino]-7-methoxyquinazolin-6-yl}oxy)ethanol]"
10,2.02,"COc1cc2nc(Cl)nc(NCc3ccco3)c2cc1OCC1COCCO1 (stereo not drawn) [Example 27, 2-Chloro-6-(1,4-dioxan-2-ylmethoxy)-N-(furan-2-ylmethyl)-7-methoxyquinazolin-4-amine]"
11,> 50,"COc1cc2nc(Cl)nc(NCc3ccco3)c2cc1OCCC(=O)O [Example 28, 3-({2-Chloro-4-[(furan-2-ylmethyl)amino]-7-methoxyquinazolin-6-yl}oxy)propanoic acid]"
12,6.41,"COC(=O)CCOc1cc2c(NCc3ccco3)nc(Cl)nc2cc1OC [Example 29, Methyl 3-({2-chloro-4-[(furan-2-ylmethyl)amino]-7-methoxyquinazolin-6-yl}oxy)propanoate]"
13,26.4,"COC(=O)COc1cc2c(NCc3ccco3)nc(Cl)nc2cc1OC [Example 30, Methyl ({2-chloro-4-[(furan-2-ylmethyl)amino]-7-methoxyquinazolin-6-yl}oxy)acetate]"
14,3.15,"COc1cc2c(NCc3ccco3)nc(Cl)nc2cc1OCCN [Example 31, 7-(2-Aminoethoxy)-2-chloro-N-(furan-2-ylmethyl)-6-methoxyquinazolin-4-amine]"
15,4.29,"CNCCOc1cc2nc(Cl)nc(NCc3ccco3)c2cc1OC [Example 32, 2-Chloro-N-(furan-2-ylmethyl)-6-methoxy-7-[2-(methylamino)ethoxy]quinazolin-4-amine]"
16,3.65,"CCOc1cc2nc(Cl)nc(NCc3ccco3)c2cc1OC [Example 33, 2-Chloro-7-ethoxy-N-(furan-2-ylmethyl)-6-methoxyquinazolin-4-amine]"
